# In US8575321B2, “Benzylbenzene derivatives and methods of use” (Theracos, Inc., priority 2007, dated 2013):
# What was measured:
# human SGLT1 = molecular target: T1, human SGLT1 (Homo sapiens, UniProt P13866); assay: Methyl-α-D-[U-14C]glucopyranoside uptake assay in COS-7 cells expressing human SGLT1; type: cell-based; details: 2 h incubation
# T1 construct: Full-length human SGLT1 cDNA on pDream2.1 expression vector; host or cells: COS-7 cells (American Type Culture Collection)
# T1 sequence (P13866 1-664): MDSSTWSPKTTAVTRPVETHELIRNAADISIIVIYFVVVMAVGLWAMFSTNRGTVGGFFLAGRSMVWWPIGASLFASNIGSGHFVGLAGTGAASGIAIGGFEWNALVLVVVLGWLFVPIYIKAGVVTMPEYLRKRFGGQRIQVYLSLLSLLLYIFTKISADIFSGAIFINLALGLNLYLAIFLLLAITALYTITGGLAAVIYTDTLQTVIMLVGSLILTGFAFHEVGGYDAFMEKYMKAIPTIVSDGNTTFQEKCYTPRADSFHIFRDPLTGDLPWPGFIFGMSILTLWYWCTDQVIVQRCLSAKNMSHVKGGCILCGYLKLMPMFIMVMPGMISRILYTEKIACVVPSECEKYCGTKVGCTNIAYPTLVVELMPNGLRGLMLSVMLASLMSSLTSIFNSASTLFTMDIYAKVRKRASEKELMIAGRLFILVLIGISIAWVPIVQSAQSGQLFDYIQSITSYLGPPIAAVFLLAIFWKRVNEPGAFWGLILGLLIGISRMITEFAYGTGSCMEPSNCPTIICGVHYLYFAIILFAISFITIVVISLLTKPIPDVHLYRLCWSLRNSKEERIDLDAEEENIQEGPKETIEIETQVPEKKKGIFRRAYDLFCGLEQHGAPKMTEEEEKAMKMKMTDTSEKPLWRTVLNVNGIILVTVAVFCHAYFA
# Experimental: Full-length human SGLT1 cDNA on pDream2.1 expression vector was obtained from GenScript Corporation and propagated in Escherichia coli strain DH5α using Luria-Bertani (LB) medium containing ampicillin. Plasmid DNA was isolated using the QIAGEN Plasmid Midi Kit (QIAGEN Inc.). […] Transfected cells were stored in DMEM containing 10% dimethyl sulfoxide (DMSO) at −80° C.
# (§1) Cells expressing SGLT1 or SGLT2 were seeded on 96-well ScintiPlate scintillating plates (PerkinElmer, Inc.) in DMEM containing 10% FBS (1×10^5 cells per well in 100 μl medium) incubated at 37° C. under 5% CO2 for 48 h prior to the assay. Cells were washed twice with 150 μl of either sodium buffer (137 mM NaCl, 5.4 mM KCl, 2.8 mM CaCl2, 1.2 mM MgCl2, 10 mM tris(hydroxymethyl)aminomethane/N^2-hydroxyethylpiperazine-N′-ethanesulfonic acid [Tris/Hepes], pH 7.2) or sodium-free buffer (137 mM N-methyl-glucamine, 5.4 mM KCl, 2.8 mM CaCl2, 1.2 mM MgCl2, 10 mM Tris/Hepes, pH 7.2). Test compound in 50 μl each of sodium or sodium-free buffer containing 40 μCi/ml methyl-α-D-[U-^14C]glucopyranoside (Amersham Biosciences/GE Healthcare), either with (symbols in parentheses) or without (symbols without parentheses) 25% human serum, was added per well of a 96-well plate and incubated at 37° C. with shaking for either 2 h (SGLT1 assay) or 1.5 h (SGLT2 assay). Cells were washed twice with 150 μl of wash buffer (137 mM N-methylglucamine, 10 mM Tris/Hepes, pH 7.2) and methyl-α-D-[U-^14C]glucopyranoside uptake was quantitated using a TopCount scintillation counter (PerkinElmer, Inc.). Sodium-dependent glucopyranoside uptake was measured by subtracting the values obtained with sodium-free buffer from those obtained using sodium buffer (average of triplicate determinations).
# human SGLT2 = molecular target: T2, human SGLT2 (Homo sapiens, UniProt P31639); assay: Methyl-α-D-[U-14C]glucopyranoside uptake assay in HEK293.ETN cells stably expressing human SGLT2; type: cell-based; details: 1.5 h incubation
# T2 construct: A full-length cDNA clone expressing human SGLT2
# T2 sequence (P31639 1-672): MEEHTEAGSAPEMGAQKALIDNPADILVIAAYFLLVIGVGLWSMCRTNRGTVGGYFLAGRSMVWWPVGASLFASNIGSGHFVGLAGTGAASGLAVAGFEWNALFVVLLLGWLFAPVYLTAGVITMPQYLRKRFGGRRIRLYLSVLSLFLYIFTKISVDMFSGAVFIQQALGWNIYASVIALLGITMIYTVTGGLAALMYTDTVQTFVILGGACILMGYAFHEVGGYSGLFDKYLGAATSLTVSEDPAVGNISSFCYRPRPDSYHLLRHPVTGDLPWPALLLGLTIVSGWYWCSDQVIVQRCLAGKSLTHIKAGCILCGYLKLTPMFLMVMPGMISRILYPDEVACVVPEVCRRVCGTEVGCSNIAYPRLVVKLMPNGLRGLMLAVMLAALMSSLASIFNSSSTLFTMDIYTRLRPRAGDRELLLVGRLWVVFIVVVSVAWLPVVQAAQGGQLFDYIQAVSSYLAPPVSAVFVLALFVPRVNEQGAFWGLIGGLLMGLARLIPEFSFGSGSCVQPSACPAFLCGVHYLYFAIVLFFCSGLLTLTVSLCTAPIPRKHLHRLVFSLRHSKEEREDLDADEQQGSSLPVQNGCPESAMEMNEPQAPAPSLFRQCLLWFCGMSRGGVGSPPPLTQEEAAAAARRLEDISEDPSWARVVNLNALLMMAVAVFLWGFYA
# Description: A full-length cDNA clone expressing human SGLT2 (GenScript Corporation) was subcloned into Hind III and Not I sites of pEAK15 expression vector. Clones harboring the cDNA inserts were identified by restriction analysis.
# Plasmid containing human SGLT2 was linearized with Nsi I and purified by agarose gel electrophoresis. Using Lipofectamine 2000 Transfection Reagent (Invitrogen Corporation), DNA was transfected into HEK293.ETN cells and cultured in Dulbecco's Modified Eagle Medium (DMEM) containing 10% fetal bovine serum (FBS) at 37° C. under 5% CO2 for 24 h. Transfectants were selected in the same growth medium supplemented with puromycin (Invitrogen Corporation) for two weeks. Puromycin-resistant cells were recovered and seeded on a fresh 96-well plate (single cell per well) and cultured in the presence of puromycin until cells became confluent. Puromycin-resistant clones were evaluated for SGLT2 activity in the methyl-α-D-[U-^14C]glucopyranoside uptake assay described below.
# as §1
# [1] = incubation with 25% human serum (symbols in parentheses)
# [2] = without human serum (symbols without parentheses)
Structure (SMILES),IC50 (human SGLT1; [1]),IC50 (human SGLT2; [1]),IC50 (human SGLT1; [2]),IC50 (human SGLT2; [2])
"OC[C@H]1O[C@@H](c2ccc(Cl)c(Cc3ccc(OCCOC4CCCC4)cc3)c2)[C@H](O)[C@@H](O)[C@@H]1O [Compound AD, (2S,3R,4R,5S,6R)-2-(4-chloro-3-(4-(2-(cyclopentyloxy)ethoxy)benzyl)phenyl)-6-(hydroxymethyl)tetrahydro-2H-pyran-3,4,5-triol]",1 to 10 µM,< 1 µM,,
"OC[C@H]1O[C@@H](c2ccc(Cl)c(Cc3ccc(OCC#CC4CC4)cc3)c2)[C@H](O)[C@@H](O)[C@@H]1O [Compound AV, (2S,3R,4R,5S,6R)-2-(4-chloro-3-(4-(3-cyclopropylprop-2-ynyloxy)benzyl)phenyl)-6-(hydroxymethyl)tetrahydro-2H-pyran-3,4,5-triol]",> 10 µM,< 1 µM,,
"OC[C@H]1O[C@@H](c2ccc(Cl)c(Cc3ccc(CCOC(F)F)cc3)c2)[C@H](O)[C@@H](O)[C@@H]1O [Compound BN, (2S,3R,4R,5S,6R)-2-(4-chloro-3-(4-(2-(difluoromethoxy)ethyl)benzyl)phenyl)-6-(hydroxymethyl)tetrahydro-2H-pyran-3,4,5-triol]",> 10 µM,< 1 µM,,
"OC[C@H]1O[C@@H](c2ccc(Cl)c(Cc3ccc(OCCOC4CC4)cc3)c2)[C@H](O)[C@@H](O)[C@@H]1O [Compound BQ, (2S,3R,4R,5S,6R)-2-(4-chloro-3-(4-(2-cyclopropoxyethoxy)benzyl)phenyl)-6-(hydroxymethyl)tetrahydro-2H-pyran-3,4,5-triol]",1 to 10 µM,< 1 µM,,
"OC[C@H]1O[C@@H](c2ccc(Cl)c(Cc3ccc(OCCOCC(F)(F)F)cc3)c2)[C@H](O)[C@@H](O)[C@@H]1O [Compound BT, (2S,3R,4R,5S,6R)-2-(4-chloro-3-(4-(2-(2,2,2-trifluoroethoxy)ethoxy)benzyl)phenyl)-6-(hydroxymethyl)tetrahydro-2H-pyran-3,4,5-triol]",1 to 10 µM,< 1 µM,,
"OC[C@H]1O[C@@H](c2ccc(Cl)c(Cc3ccc(OCCOC4C=CCCC4)cc3)c2)[C@H](O)[C@@H](O)[C@@H]1O (stereo partly drawn) [Compound BW, (2S,3R,4R,5S,6R)-2-(4-chloro-3-(4-(2-(cyclohex-2-enyloxy)ethoxy)benzyl)phenyl)-6-(hydroxymethyl)tetrahydro-2H-pyran-3,4,5-triol]",> 10 µM,< 1 µM,,
"OC[C@H]1O[C@@H](c2ccc(Cl)c(Cc3ccc(OC/C=C/C4CC4)cc3)c2)[C@H](O)[C@@H](O)[C@@H]1O [Compound BZ, (2S,3R,4R,5S,6R)-2-(4-chloro-3-(4-((E)-3-cyclopropylallyloxy)benzyl)phenyl)-6-(hydroxymethyl)tetrahydro-2H-pyran-3,4,5-triol]",> 10 µM,< 1 µM,,
"OC[C@H]1O[C@@H](c2ccc(Cl)c(Cc3ccc(OCCOCCF)cc3)c2)[C@H](O)[C@@H](O)[C@@H]1O [Compound CC, (2S,3R,4R,5S,6R)-2-(4-chloro-3-(4-(2-(2-fluoroethoxy)ethoxy)benzyl)phenyl)-6-(hydroxymethyl)tetrahydro-2H-pyran-3,4,5-triol]",,,1 to 10 µM,< 1 µM
"OC[C@H]1O[C@@H](c2ccc(Cl)c(Cc3ccc(OCCOCC(F)F)cc3)c2)[C@H](O)[C@@H](O)[C@@H]1O [Compound CF, (2S,3R,4R,5S,6R)-2-(4-chloro-3-(4-(2-(2,2-difluoroethoxy)ethoxy)benzyl)phenyl)-6-(hydroxymethyl)tetrahydro-2H-pyran-3,4,5-triol]",,,1 to 10 µM,< 1 µM
"OC[C@H]1O[C@@H](c2ccc(Cl)c(Cc3ccc(OCCOCCN4CCCC4)cc3)c2)[C@H](O)[C@@H](O)[C@@H]1O [Compound CH, (2S,3R,4R,5S,6R)-2-(4-chloro-3-(4-(2-(2-(pyrrolidin-1-yl)ethoxy)ethoxy)benzyl)phenyl)-6-(hydroxymethyl)tetrahydro-2H-pyran-3,4,5-triol]",1 to 10 µM,< 1 µM,,
"OC[C@H]1O[C@@H](c2ccc(Cl)c(Cc3ccc(OCCO[C@H]4CCOC4)cc3)c2)[C@H](O)[C@@H](O)[C@@H]1O [Compound CK, (2S,3R,4R,5S,6R)-2-(4-chloro-3-(4-(2-((S)-tetrahydrofuran-3-yloxy)ethoxy)benzyl)phenyl)-6-(hydroxymethyl)tetrahydro-2H-pyran-3,4,5-triol]",1 to 10 µM,< 1 µM,,
"OC[C@H]1O[C@@H](c2ccc(Cl)c(Cc3ccc(OCCOC4CCC4)cc3)c2)[C@H](O)[C@@H](O)[C@@H]1O [Compound CM, (2S,3R,4R,5S,6R)-2-(4-chloro-3-(4-(2-cyclobutoxyethoxy)benzyl)phenyl)-6-(hydroxymethyl)tetrahydro-2H-pyran-3,4,5-triol]",> 10 µM,< 1 µM,,
"CC1(OCCOc2ccc(Cc3cc([C@@H]4O[C@H](CO)[C@@H](O)[C@H](O)[C@H]4O)ccc3Cl)cc2)CC1 [Compound CP, (2S,3R,4R,5S,6R)-2-(4-chloro-3-(4-(2-(1-methylcyclopropoxy)ethoxy)benzyl)phenyl)-6-(hydroxymethyl)tetrahydro-2H-pyran-3,4,5-triol]",> 10 µM,< 1 µM,,
"OC[C@H]1O[C@@H](c2ccc(Cl)c(Cc3ccc(CCOC4CC4)cc3)c2)[C@H](O)[C@@H](O)[C@@H]1O [Compound CT, (2S,3R,4R,5S,6R)-2-(4-chloro-3-(4-(2-cyclopropoxyethyl)benzyl)phenyl)-6-(hydroxymethyl)tetrahydro-2H-pyran-3,4,5-triol]",> 10 µM,< 1 µM,,
"OC[C@H]1O[C@@H](c2ccc(Cl)c(Cc3ccc(COC4CC4)cc3)c2)[C@H](O)[C@@H](O)[C@@H]1O [Compound CX, (2S,3R,4R,5S,6R)-2-(4-chloro-3-(4-(cyclopropoxymethyl)benzyl)phenyl)-6-(hydroxymethyl)tetrahydro-2H-pyran-3,4,5-triol]",> 10 µM,< 1 µM,,
"CC(COc1ccc(Cc2cc([C@@H]3O[C@H](CO)[C@@H](O)[C@H](O)[C@H]3O)ccc2Cl)cc1)OC1CC1 (stereo partly drawn) [Compound DC, (2S,3R,4R,5S,6R)-2-(4-chloro-3-(4-(2-cyclopropoxypropoxy)benzyl)phenyl)-6-(hydroxymethyl)tetrahydro-2H-pyran-3,4,5-triol]",1 to 10 µM,< 1 µM,,
